Reference: BigSolDB 2.1

O=P(O)(c1ccccc1)c1ccccc1
Settings | solubility (mole fraction)
in 2-ethoxyethanol, 288.15 K | 0.00619
in 2-ethoxyethanol, 293.18 K | 0.00716
in 2-ethoxyethanol, 298.17 K | 0.0081
in 2-ethoxyethanol, 303.04 K | 0.00924
in 2-ethoxyethanol, 308.11 K | 0.0106
in 2-ethoxyethanol, 313.15 K | 0.0118
in 2-ethoxyethanol, 318.2 K | 0.0135
in 2-ethoxyethanol, 323.16 K | 0.0151
in 2-ethoxyethanol, 328.2 K | 0.0172
in 2-ethoxyethanol, 332.96 K | 0.0196
in 2-ethoxyethanol, 338.03 K | 0.0223
in 2-ethoxyethanol, 343.24 K | 0.0252
in 2-ethoxyethanol, 348.24 K | 0.0285
in 2-ethoxyethanol, 353.25 K | 0.0321
in 2-ethoxyethanol, 358.29 K | 0.036
in 2-ethoxyethanol, 363.1 K | 0.0401
in acetic acid, 293.23 K | 0.00426
in acetic acid, 303.15 K | 0.00604
in acetic acid, 313.03 K | 0.00827
in acetic acid, 323.15 K | 0.0112
in acetic acid, 333.21 K | 0.0151
in acetic acid, 343.04 K | 0.0209
in acetone, 293.25 K | 0.00051
in acetone, 298.18 K | 0.00068
in acetone, 303.12 K | 0.00091
in acetone, 308.23 K | 0.0012
in acetone, 313.19 K | 0.00156
in acetone, 318.21 K | 0.00203
in acetone, 323.24 K | 0.00244
in benzene, 293.15 K | 0.0007
in benzene, 303.19 K | 0.00112
in benzene, 313.17 K | 0.00183
in benzene, 322.95 K | 0.00291
in benzene, 333.21 K | 0.00459
in benzene, 343.12 K | 0.00706
in ethanol, 283.15 K | 0.00575
in ethanol, 288.15 K | 0.00671
in ethanol, 293.1 K | 0.00774
in ethanol, 298.07 K | 0.00889
in ethanol, 303.07 K | 0.0102
in ethanol, 308.15 K | 0.0117
in ethanol, 313.16 K | 0.0134
in ethanol, 318.16 K | 0.0152
in ethanol, 322.84 K | 0.0173
in ethanol, 327.94 K | 0.0198
in ethanol, 333.1 K | 0.0231
in ethanol, 337.97 K | 0.0264
in ethanol, 342.9 K | 0.0302
in ethyl acetate, 293.06 K | 0.00052
in ethyl acetate, 298.15 K | 0.0006
in ethyl acetate, 303.15 K | 0.00075
in ethyl acetate, 308.17 K | 0.00098
in ethyl acetate, 313.23 K | 0.00121
in ethyl acetate, 318.04 K | 0.00144
in ethyl acetate, 323.1 K | 0.00176
in ethyl acetate, 328.13 K | 0.00208
in ethyl acetate, 333.25 K | 0.00247
in ethyl acetate, 337.95 K | 0.00318
in isopropanol, 288.15 K | 0.00426
in isopropanol, 293.15 K | 0.00503
in isopropanol, 297.98 K | 0.00594
in isopropanol, 303.09 K | 0.00696
in isopropanol, 308.05 K | 0.00803
in isopropanol, 313.15 K | 0.00931
in isopropanol, 318.06 K | 0.0107
in isopropanol, 323.08 K | 0.0123
in isopropanol, 328.12 K | 0.0144
in isopropanol, 332.97 K | 0.0165
in isopropanol, 338.17 K | 0.0189
in isopropanol, 342.94 K | 0.0223
in isopropanol, 347.8 K | 0.0257
in toluene, 293.15 K | 0.00049
in toluene, 303.16 K | 0.00074
in toluene, 313.18 K | 0.00107
in toluene, 323.08 K | 0.00157
in toluene, 333.17 K | 0.00232
in toluene, 343.25 K | 0.00326
in toluene, 352.95 K | 0.00462
in toluene, 362.65 K | 0.00651
in water, 303.14 K | 5e-05
in water, 313.17 K | 8e-05
in water, 323.13 K | 0.00011
in water, 333 K | 0.00014
in water, 343.05 K | 0.00018
in water, 353.05 K | 0.00023
